# Test results taken from patent US20100144779A1, “Marine Alkalod Makaluvamines and Derivatives Thereof” (THE UAB RESEARCH FOUNDATION, priority 2007, published 2010).
# What was measured:
# Experiment in all cases: NCI60 cell line screen (SRB)
# Assay type in all cases: cell-based, human
# A549/ATCC = conditions: Non-Small Cell Lung Cancer, 48 h
# Experimental: (§1) This panel implements the NCI60 cell line screen, including leukemia, non-small cell lung cancer, colon cancer, central nervous system cancer, melanoma, ovarian cancer, renal cancer, prostate cancer and breast cancer. The cell lines tested are specified in Table 3.
# (§2) Generally, the human tumor cell lines of the cancer screening panel are grown in RPMI 1640 medium containing 5% fetal bovine serum and 2 mM L-glutamine. For a typical screening experiment, cells are inoculated into 96 well microtiter plates in 100 μL at plating densities ranging from 5,000 to 40,000 cells/well depending on the doubling time of individual cell lines. After cell inoculation, the microtiter plates are incubated at 37° C., 5% CO2, 95% air and 100% relative humidity for 24 h prior to addition of experimental drugs. After 24 h, two plates of each cell line are fixed in situ with TCA, to represent a measurement of the cell population for each cell line at the time of drug addition (Tz). Experimental drugs are solubilized in dimethyl sulfoxide at 400-fold the desired final maximum test concentration and stored frozen prior to use. At the time of drug addition, an aliquot of frozen concentrate is thawed and diluted to twice the desired final maximum test concentration with complete medium containing 50 μg/ml gentamicin. Additional four, 10-fold or ½ log serial dilutions are made to provide a total of five drug concentrations plus control. Aliquots of 100 μl of these different drug dilutions are added to the appropriate microtiter wells already containing 100 μl of medium, resulting in the required final drug concentrations.
# (§3) Following drug addition, the plates are incubated for an additional 48 h at 37° C., 5% CO2, 95% air, and 100% relative humidity. For adherent cells, the assay is terminated by the addition of cold TCA. Cells are fixed in situ by the gentle addition of 50 μl of cold 50% (w/v) TCA (final concentration, 10% TCA) and incubated for 60 minutes at 4° C. The supernatant is discarded, and the plates are washed five times with tap water and air dried. Sulforhodamine B (SRB) solution (100 μl) at 0.4% (w/v) in 1% acetic acid is added to each well, and plates are incubated for 10 minutes at room temperature. After staining, unbound dye is removed by washing five times with 1% acetic acid and the plates are air dried. Bound stain is subsequently solubilized with 10 mM trizma base, and the absorbance is read on an automated plate reader at a wavelength of 515 nm. For suspension cells, the methodology is the same except that the assay is terminated by fixing settled cells at the bottom of the wells by gently adding 50 μl of 80% TCA (final concentration, 16% TCA). Using the seven absorbance measurements (time zero, Tz, control growth, (control), and test growth in the presence of drug at the five concentration levels (Ti)), the percentage growth is calculated at each of the drug concentrations levels. Percentage growth inhibition is calculated as:
# (§4) [(Ti−Tz)/(C−Tz)]×100 for concentrations for which Ti>/=Tz
# (§5) [(Ti−Tz)/Tz]×100 for concentrations for which Ti<Tz.
# SF-295 = conditions: SF-295, CNS Cancer, 48 h
# Experimental: as §1, §2, §3, §4, §5
# MDA-MB-435 = conditions: MDA-MB-435, Breast Cancer, 48 h
# Experimental: as §1, §2, §3, §4, §5
# CCRF-CEM = conditions: Leukemia, 48 h
# Experimental: as §1, §2, §3, §4, §5
# SR = conditions: Leukemia, 48 h
# Experimental: as §1, §2, §3, §4, §5
# OVCAR3 = conditions: OVCAR3, Ovarian Cancer, 48 h
# Experimental: as §1, §2, §3, §4, §5
# SNB-19 = conditions: SNB-19, CNS Cancer, 48 h
# Experimental: as §1, §2, §3, §4, §5
# BT-459 = conditions: BT-459, Breast Cancer, 48 h
# Experimental: as §1, §2, §3, §4, §5
# UACC-62 = conditions: UACC-62, Melanoma, 48 h
# Experimental: as §1, §2, §3, §4, §5
# MOLT-4 = conditions: MOLT-4, Leukemia, 48 h
# Experimental: as §1, §2, §3, §4, §5
# PC-3 = conditions: PC-3, Prostate Cancer, 48 h
# Experimental: as §1, §2, §3, §4, §5
# SK-MEL-2 = conditions: SK-MEL-2, Melanoma, 48 h
# Experimental: as §1, §2, §3, §4, §5
# TK-10 = conditions: TK-10, Renal Cancer, 48 h
# Experimental: as §1, §2, §3, §4, §5
# SN12C = conditions: Renal Cancer, 48 h
# Experimental: as §1, §2, §3, §4, §5
# NCIH332M = conditions: Non-Small Cell Lung Cancer, 48 h
# Experimental: as §1, §2, §3, §4, §5
# LOX IMVI = conditions: Melanoma, 48 h
# Experimental: as §1, §2, §3, §4, §5
# HOP-92 = conditions: HOP-92, Non-Small Cell Lung Cancer, 48 h
# Experimental: as §1, §2, §3, §4, §5
# UACC-257 = conditions: UACC-257, Melanoma, 48 h
# Experimental: as §1, §2, §3, §4, §5
# SW-620 = conditions: SW-620, Colon Cancer, 48 h
# Experimental: as §1, §2, §3, §4, §5
# UO-31 = conditions: UO-31, Renal Cancer, 48 h
# Experimental: as §1, §2, §3, §4, §5
# SK-MEL-5 = conditions: SK-MEL-5, Melanoma, 48 h
# Experimental: as §1, §2, §3, §4, §5
# T-47D = conditions: Breast Cancer, 48 h
# Experimental: as §1, §2, §3, §4, §5
# ACHN = conditions: Renal Cancer, 48 h
# Experimental: as §1, §2, §3, §4, §5
# DU-145 = conditions: DU-145, Prostate Cancer, 48 h
# Experimental: as §1, §2, §3, §4, §5
# SK-MEL-28 = conditions: SK-MEL-28, Melanoma, 48 h
# Experimental: as §1, §2, §3, §4, §5
# MCF-7 = conditions: MCF-7, Breast Cancer, 48 h
# Experimental: as §1, §2, §3, §4, §5
structure (smiles),measurement,setting,value
O=C(O)C(F)(F)F.O=C1C(NCc2ccc(F)cc2)=CC2=NCCc3c[nH]c1c32 [Compound 28],GI50,A549/ATCC; Homo sapiens,1.44 µM
same,GI50,SF-295; Homo sapiens,1.06 µM
same,GI50,MDA-MB-435; Homo sapiens,1.75 µM
same,GI50,CCRF-CEM; Homo sapiens,1.43 µM
same,GI50,SR; Homo sapiens,1.21 µM
same,GI50,"OVCAR3; Homo sapiens, OVCAR-3",2.23 µM
same,GI50,SNB-19; Homo sapiens,1.79 µM
same,GI50,BT-459; Homo sapiens,3.14 µM
same,GI50,UACC-62; Homo sapiens,1.56 µM
same,GI50,MOLT-4; Homo sapiens,0.793 µM
same,GI50,PC-3; Homo sapiens,1.57 µM
same,GI50,SK-MEL-2; Homo sapiens,4.53 µM
same,GI50,TK-10; Homo sapiens,3.19 µM
same,GI50,SN12C; Homo sapiens,1.95 µM
same,GI50,"NCIH332M; Homo sapiens, NCI-H332M",1.17 µM
same,GI50,LOX IMVI; Homo sapiens,1.57 µM
same,GI50,HOP-92; Homo sapiens,1.68 µM
same,GI50,UACC-257; Homo sapiens,0.189 µM
same,GI50,SW-620; Homo sapiens,1.82 µM
same,GI50,UO-31; Homo sapiens,2.59 µM
same,GI50,SK-MEL-5; Homo sapiens,0.325 µM
same,GI50,"T-47D; Homo sapiens, T47D",0.633 µM
same,GI50,ACHN; Homo sapiens,2.04 µM
same,GI50,DU-145; Homo sapiens,1.08 µM
same,GI50,SK-MEL-28; Homo sapiens,5.78 µM
same,GI50,"MCF-7; Homo sapiens, MCF7",0.16 µM
CNC1=CC2=NCCc3c[nH]c(c32)C1=O [Compound 4a],GI50,A549/ATCC,2.78 µM
same,GI50,SF-295,1.21 µM
same,GI50,MDA-MB-435,1.8 µM
same,GI50,CCRF-CEM,2.97 µM
same,GI50,SR,3.12 µM
same,GI50,OVCAR3,6.3 µM
same,GI50,SNB-19,3.43 µM
same,GI50,BT-459,7.38 µM
same,GI50,UACC-62,2.49 µM
same,GI50,MOLT-4,1.97 µM
same,GI50,PC-3,3.61 µM
same,GI50,SK-MEL-2,1.67 µM
same,GI50,TK-10,15.4 µM
same,GI50,SN12C,3.06 µM
same,GI50,NCIH332M,2.89 µM
same,GI50,LOX IMVI,3.43 µM
same,GI50,HOP-92,1.28 µM
same,GI50,UACC-257,2 µM
same,GI50,SW-620,3.1 µM
same,GI50,UO-31,14.6 µM
same,GI50,SK-MEL-5,1.45 µM
same,GI50,T-47D,3.5 µM
same,GI50,ACHN,13.1 µM
same,GI50,DU-145,2.29 µM
same,GI50,SK-MEL-28,6.62 µM
same,GI50,MCF-7,1.52 µM
O=C1C(NCc2ccccc2)=CC2=NCCc3c[nH]c1c32 [Compound 4c],GI50,A549/ATCC,2.14 µM
same,GI50,SF-295,1.12 µM
same,GI50,MDA-MB-435,2.03 µM
same,GI50,CCRF-CEM,0.9 µM
same,GI50,SR,1.75 µM
same,GI50,OVCAR3,2.58 µM
same,GI50,SNB-19,1.96 µM
same,GI50,BT-459,4.58 µM
same,GI50,UACC-62,1.82 µM
same,GI50,MOLT-4,0.315 µM
same,GI50,PC-3,1.54 µM
same,GI50,SK-MEL-2,5.2 µM
same,GI50,TK-10,4.72 µM
same,GI50,SN12C,1.89 µM
same,GI50,NCIH332M,0.628 µM
same,GI50,LOX IMVI,1.81 µM
same,GI50,HOP-92,0.308 µM
same,GI50,UACC-257,0.315 µM
same,GI50,SW-620,1.07 µM
same,GI50,UO-31,2.63 µM
same,GI50,SK-MEL-5,0.462 µM
same,GI50,T-47D,0.523 µM
same,GI50,ACHN,2.8 µM
same,GI50,DU-145,1.79 µM
same,GI50,SK-MEL-28,7.42 µM
same,GI50,MCF-7,0.061 µM
O=C(O)C(F)(F)F.O=C1C(NCCc2ccc3c(c2)OCO3)=CC2=NCCc3c[nH]c1c32 [Compound 6],GI50,SF-295; Homo sapiens,1.87 µM
same,GI50,MDA-MB-435; Homo sapiens,1.89 µM
same,GI50,CCRF-CEM; Homo sapiens,2.97 µM
same,GI50,SR; Homo sapiens,2.5 µM
same,GI50,"OVCAR3; Homo sapiens, OVCAR-3",2.02 µM
same,GI50,SNB-19; Homo sapiens,3.29 µM
same,GI50,BT-459; Homo sapiens,3.07 µM
same,GI50,UACC-62; Homo sapiens,2.32 µM
same,GI50,MOLT-4; Homo sapiens,2.02 µM
same,GI50,PC-3; Homo sapiens,5.93 µM
same,GI50,SK-MEL-2; Homo sapiens,5.82 µM
same,GI50,TK-10; Homo sapiens,4.51 µM
same,GI50,SN12C; Homo sapiens,2.69 µM
same,GI50,"NCIH332M; Homo sapiens, NCI-H332M",2.82 µM
same,GI50,LOX IMVI; Homo sapiens,1.68 µM
same,GI50,HOP-92; Homo sapiens,5.45 µM
same,GI50,UACC-257; Homo sapiens,2.97 µM
same,GI50,SW-620; Homo sapiens,3.44 µM
same,GI50,UO-31; Homo sapiens,5.84 µM
same,GI50,SK-MEL-5; Homo sapiens,0.965 µM
same,GI50,"T-47D; Homo sapiens, T47D",2.97 µM
same,GI50,ACHN; Homo sapiens,3.25 µM
same,GI50,DU-145; Homo sapiens,1.35 µM
same,GI50,SK-MEL-28; Homo sapiens,4.91 µM
same,GI50,"MCF-7; Homo sapiens, MCF7",1.21 µM
COc1ccc(CCNC2=CC3=NCCc4c[nH]c(c43)C2=O)cc1OC.O=C(O)C(F)(F)F [Compound 20],GI50,A549/ATCC; Homo sapiens,2.72 µM
same,GI50,SF-295; Homo sapiens,1.84 µM
same,GI50,MDA-MB-435; Homo sapiens,2.05 µM
same,GI50,CCRF-CEM; Homo sapiens,10.6 µM
same,GI50,SR; Homo sapiens,5.69 µM
same,GI50,"OVCAR3; Homo sapiens, OVCAR-3",1.61 µM
same,GI50,SNB-19; Homo sapiens,3.26 µM
same,GI50,BT-459; Homo sapiens,4.53 µM
same,GI50,UACC-62; Homo sapiens,2.17 µM
same,GI50,MOLT-4; Homo sapiens,4.95 µM
same,GI50,PC-3; Homo sapiens,7.62 µM
same,GI50,SK-MEL-2; Homo sapiens,0.73 µM
same,GI50,TK-10; Homo sapiens,5.1 µM
same,GI50,SN12C; Homo sapiens,3.07 µM
same,GI50,"NCIH332M; Homo sapiens, NCI-H332M",2.84 µM
same,GI50,LOX IMVI; Homo sapiens,2.34 µM
same,GI50,HOP-92; Homo sapiens,1.03 µM
same,GI50,UACC-257; Homo sapiens,3.07 µM
same,GI50,SW-620; Homo sapiens,3.09 µM
same,GI50,UO-31; Homo sapiens,7.11 µM
same,GI50,SK-MEL-5; Homo sapiens,1.33 µM
same,GI50,"T-47D; Homo sapiens, T47D",2.49 µM
same,GI50,ACHN; Homo sapiens,4.21 µM
same,GI50,DU-145; Homo sapiens,2.81 µM
same,GI50,SK-MEL-28; Homo sapiens,10.1 µM
same,GI50,"MCF-7; Homo sapiens, MCF7",2.61 µM
